1 compound from PMC5933338 (Drug Design, Development and Therapy, 2018) can be followed below.

Structures are written as SMILES.

The experiment addresses wild type (WT) A/M2 protein (Influenza A virus, UniProt P0DOF5). Nature of the experiment: cell-based.

Chain of wild type (WT) A/M2 protein (P0DOF5 whole entry, looked up): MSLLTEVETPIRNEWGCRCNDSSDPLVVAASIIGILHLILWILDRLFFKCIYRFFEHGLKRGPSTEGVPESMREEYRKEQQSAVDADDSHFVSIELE

As to `CCCCNC(C)C12CC3CC(CC(C3)C1)C2` (centres unmarked) [Compound 5a, (1-Adamantan-1-yl-ethyl)-butyl-amine], the “M2 WT inhibitory activity relative to that of 4c” value (100 µM, 5a versus rimantadine dimer 4c) is “approximately fourfold”. The inhibition at 100 µM (read-out: percentage inhibition of A/M2 current (WT)) is 40%.
